Marks after values point to notes of the source that are not given here.
What was measured:
[1] = tested on: diet-induced obese (DIO) mice; experiment: Sub-chronic in vivo study in obese mice: IPGTT (intraperitoneal glucose tolerance test); parameters: species or system C57BL/6J mice; settings: for effect on glucose tolerance (in words): DIO mice, Tables 6-8, compound 47 2 nmol/kg, GIP derivatives 30 nmol/kg; for iAUC, IPGTT (mM*min) Day 15: i.p. glucose 2 g/kg, 4 h fasted, baseline subtracted AUC, mean ± SEM
Text: (§1) The purpose of this example is to assess the in vivo effect of the GIP derivatives of the present invention alone and in combination with a GLP-1 receptor agonist on food intake, body weight, and glucose tolerance in diet-induced obese (DIO) mice. The GLP-1 receptor agonist used for this example was a semaglutide-like molecule that has the same pharmacological properties as semaglutide, but a slightly different structure. The compound may be synthesised using methods known in the art, e.g. as described by methods of present Example 1 or as described in WO 2006/097537, example 4.
(§2) The animals were treated once daily with the GLP-1 receptor agonist (compound no. 47) and/or a GIP derivative of the present invention exemplified by compound no.'s 5, 25 and 31, to assess weight loss, efficacy and glucose tolerance. Animals and Diet
(§3) All animal protocols were approved by an Institutional Animal Care and Use Committee and Ethical Review Committee of Novo Nordisk. Animals were housed according to Novo Nordisk rodent housing standards, and were given ad libitum access to food and water under controlled lighting (12 h:12 h light/dark cycle; lights off 18:00-06:00), temperature (23±2° C.) and relative humidity (50±20%) conditions. DIO male C57BL/6J mice maintained on a high fat diet (45% kcal fat, RD12451, Research Diets, New Brunswick, N.J., USA) for 22 weeks were obtained from Charles River (France). Upon arrival, the mice were single-housed (one mouse per cage) and allowed to acclimate to their new environment for two weeks prior to the start of treatment.
(§4) Prior to initiation of the study, animals were single-housed and acclimated to handling for 7 days. The DIO mice were distributed into groups (n=8/group) such that statistical variations in the mean and standard deviations of fat mass and body weight were minimized between groups. Animals were dosed once daily, subcutaneously with either vehicle or test compound.
(§5) All compounds in the study were formulated in the following buffer: 50 mM phosphate; 70 mM sodium chloride; 0.05% polysorbate 80, pH 7.4. Dosing solutions were formulated in glass vials and stored at 2-8° C. Dosing solutions were brought to room temperature before dosing and returned to 2-8° C. after dosing.
On the day of the glucose tolerance test (day 15), animals were fasted for 4 h. Food was removed and animals were transferred to fresh cages. Animals had access to water but not to food. Tail blood glucose levels were measured and mice were injected (t=0) with an intra-peritoneal (i.p.) glucose load of 2 g/kg (200 mg/ml glucose solution, dose volume 10 ml/kg). Tail blood glucose levels were measured at times 0, 15, 30, 60, 90, 120 minutes following the i.p. glucose load. Stratification of the animals during the IPGTT was such that for example two mice from group 1 are dosed followed by two mice from group 2, 3, 4, before the next two mice from group 1, 2, 3 etc. were handled. This was to allow for equal distribution of “time of day” throughout all groups.

[2] = tested on: diet-induced obese (DIO) mice; experiment: Sub-chronic in vivo study in obese mice: food intake and body weight; parameters: species or system C57BL/6J mice; settings: for effect on body weight (in words) / effect on food intake (in words) / Cumulative food intake (kcals) Day 14: DIO mice; for effect on body weight (in words) / effect on food intake (in words): Tables 6-8, compound 47 2 nmol/kg, GIP derivatives 30 nmol/kg; for Cumulative food intake (kcals) Day 14 / Absolute BW (grams) Day 14 / Change in BW (%) Day 14: once daily s.c.; for Cumulative food intake (kcals) Day 14 / Absolute BW (grams) Day 0 / Absolute BW (grams) Day 14 / Change in BW (%) Day 14: mean ± SEM; for Absolute BW (grams) Day 0: Day 0 (before treatment)
Text: as §1, §2, §3, §4, §5
Body weight (BW) and food intake were measured immediately prior to dosing each day. The average starting body weight of the mice prior to start of treatment was 45.2±0.2 grams.

[3] = Study 1, 47 2 nmol/kg and/or 5 30 nmol/kg
[4] = Study 2, 47 2 nmol/kg and/or 25 30 nmol/kg
[5] = Study 3, 47 2 nmol/kg, 31 30 nmol/kg
[6] = Study 2, compound no. 47 2 nmol/kg and/or compound no. 25 30 nmol/kg

Substance	effect on glucose tolerance (in words) [1]	iAUC, IPGTT (mM*min) Day 15 [1, 3]	iAUC, IPGTT (mM*min) Day 15 [1, 4]	iAUC, IPGTT (mM*min) Day 15 [1, 5]	effect on body weight (in words) [2]	effect on food intake (in words) [2]	Cumulative food intake (kcals) Day 14 ([2]; Study 1, compound no. 47 2 nmol/kg and/or compound no. 5 30 nmol/kg)	Absolute BW (grams) Day 0 ([2]; Study 1)	Absolute BW (grams) Day 14 [2, 3]	Change in BW (%) Day 14 [2, 3]	Cumulative food intake (kcals) Day 14 [2, 6]	Absolute BW (grams) Day 0 ([2]; Study 2)	Absolute BW (grams) Day 14 [2, 4]	Change in BW (%) Day 14 [2, 4]	Cumulative food intake (kcals) Day 14 ([2]; Study 3, compound no. 47 2 nmol/kg and GIP compound no. 31 30 nmol/kg)	Absolute BW (grams) Day 0 ([2]; Study 3)	Absolute BW (grams) Day 14 [2, 5]	Change in BW (%) Day 14 [2, 5]
N^6,26-{18-[N-(17-carboxyheptadecanoyl)-D-γ-glutamyl]-10-oxo-3,6,12,15-tetraoxa-9,18-diazaoctadecanoyl}-[8-(2-amino-2-propanoic acid), 34-L-arginine]human glucagon-like peptide 1(7-37) [Compound 47]	improvement in glucose tolerance	543 ± 94 ^a mM*min	503 ± 55 ^b mM*min	1441 ± 135 ^c mM*min	body weight loss	reduction in food intake	146.3 ± 6.8 ^b kcals	44.4 ± 1.0 ^a grams	38.5 ± 1.2 ^bc grams	−13.2 ± 3.3 ^c %	134.9 ± 4.3 ^b kcals	40.2 ± 1.2 ^a grams	34.8 ± 1.2 ^b grams	−13.6 ± 0.7 ^c %	140.2 ± 6.7 ^b kcals	45.2 ± 1.4 ^a grams	40.0 ± 1.3 ^a grams	−11.2 ± 1.6 ^c %
N{1}-acetyl,N{Epsilon-24}-[(4S)-4-carboxy-4-[[(4S)-4-carboxy-4-[[(4S)-4-carboxy-4-[[4-[(19-carboxynonadecanoylamino)methyl]cyclohexanecarbonyl]amino]butanoyl]-amino]butanoyl]amino]butanoyl]-[D-Tyr1,Nle14,Arg18,Aib20,Lys24]-hGIP(1-31) [Compound 25]	improved glucose tolerance	–	518 ± 36 ^b mM*min	–	minor body weight loss	minor effect on food intake	–	–	–	–	170.2 ± 7.3 ^b kcals	41.1 ± 1.0 ^a grams	38.8 ± 1.0 ^a grams	−5.6 ± 0.8 ^b %	–	–	–	–
